Assay results taken from patent publication US9657009B2, “Heteroaryl substituted pyridyl compounds useful as kinase modulators” (BRISTOL-MYERS SQUIBB COMPANY, priority 2012, dated 2017).

Molecular target: IRAK4 (Homo sapiens (Human), UniProt Q9NWZ3)
Assay: IRAK4 Inhibition Assay
Assay type: biochemical
Details: ATP 500 μM; IRAK4 0.6 nM; 60 min at room temperature; read-out: IRAK4 IC50
Protocol: IRAK4 Inhibition Assay The assays were performed in U-bottom 384-well plates. […] The reaction was initiated by the combination of IRAK4 with substrates and test compounds. The reaction mixture was incubated at room temperature for 60 min. and terminated by adding 45 μL of 35 mM EDTA to each sample.

Chain of IRAK4 (Q9NWZ3 whole entry, species assumed): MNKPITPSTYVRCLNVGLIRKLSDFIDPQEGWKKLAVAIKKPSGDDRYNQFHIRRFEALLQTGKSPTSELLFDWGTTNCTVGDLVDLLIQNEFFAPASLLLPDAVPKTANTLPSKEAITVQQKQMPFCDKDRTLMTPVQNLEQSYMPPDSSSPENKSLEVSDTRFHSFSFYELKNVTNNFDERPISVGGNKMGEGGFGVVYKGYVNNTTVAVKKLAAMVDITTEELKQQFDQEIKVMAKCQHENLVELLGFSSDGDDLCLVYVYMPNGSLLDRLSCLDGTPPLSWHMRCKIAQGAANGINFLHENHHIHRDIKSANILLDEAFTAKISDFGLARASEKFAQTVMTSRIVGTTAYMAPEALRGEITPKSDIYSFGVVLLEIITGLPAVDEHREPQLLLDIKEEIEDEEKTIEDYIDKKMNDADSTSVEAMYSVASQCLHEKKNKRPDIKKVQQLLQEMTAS

Compound | IC50
COc1cccc(Nc2cc(Nc3ncc(C#N)cc3F)ncc2C(=O)NC[C@@H](F)C(C)(C)O)c1 [Example 130] | 4 nM
COc1cnc(Nc2cc(NC3CCC3)c(C(=O)NC[C@@H](F)C(C)(C)O)cn2)nc1 [Example 112] | 11 nM
CC(C)(O)[C@H](F)CNC(=O)c1cnc(Nc2ncc(F)cc2F)cc1NC1CCOCC1F (some centres unmarked) [Example 108] | 8.7 nM
CCn1ncc(Nc2cc(NC(C)C)c(C(=O)NC[C@@H](F)C(C)(C)O)cn2)n1 [Example 72] | 10.4 nM
CC(C)(O)[C@H](F)CNC(=O)c1cnc(Nc2ncc(C#N)cc2Cl)cc1Nc1ccc2ncsc2c1 [Example 153] | 5.6 nM
CC(C)(O)[C@H](F)CNC(=O)c1cnc(Nc2ncc(C#N)cc2F)cc1NC1CCCOC1 (some centres unmarked) [Example 97] | 5.3 nM
CC(C)(O)[C@H](F)CNC(=O)c1cnc(Nc2ncc(C#N)cc2Cl)cc1Nc1cccc(C#N)c1 [Example 162] | 2.6 nM
CC(C)(O)[C@H](F)CNC(=O)c1cnc(Nc2ncc(C#N)cc2F)cc1NC12CCC(O)(CC1)C2 [Example 133] | 3.2 nM
CC(C)(O)[C@H](F)CNC(=O)c1cnc(Nc2ncc(C#N)cc2F)cc1Nc1cccc(NS(C)(=O)=O)c1 [Example 134] | 5.2 nM
CC(C)Nc1cc(Nc2ncc(C#N)c(NC(C)C)n2)ncc1C(=O)NC[C@@H](F)C(C)(C)O [Example 40] | 6.4 nM
CC(C)Nc1cc(Nc2ncc(O)cn2)ncc1C(=O)NC[C@@H](F)C(C)(C)O [Example 111] | 11.8 nM
CC(C)(O)[C@H](F)CNC(=O)c1cnc(Nc2ncc(C#N)cc2F)cc1NC1CCCOC1 (some centres unmarked) [Example 98] | 7.5 nM
CC(C)(O)[C@H](F)CNC(=O)c1cnc(Nc2ccc(C#N)cn2)cc1NCC(F)(F)F [Example 3, 6-((5-cyano-2-pyridinyl)amino)-N-((2R)-2-fluoro-3-hydroxy-3-methylbutyl)-4-((2,2,2-trifluoroethyl)amino)nicotinamide] | 14.8 nM
CC(C)(O)[C@H](F)CNC(=O)c1cnc(Nc2ncc(C#N)cc2F)cc1Nc1cccc(S(N)(=O)=O)c1 [Example 128] | 4.6 nM
CC(C)Nc1cc(Nc2ncc(C#N)c(N)n2)ncc1C(=O)NC[C@@H](F)C(C)(C)O [Example 136] | 3.3 nM
CC(C)(O)[C@H](F)CNC(=O)c1cnc(Nc2ncncc2F)cc1NC1CC1 [Example 94] | 12.1 nM
CC(C)Nc1cc(Nc2ncncc2F)ncc1C(=O)NC[C@@H](F)C(C)(C)O [Example 53] | 8.1 nM
CC(C)(O)[C@H](F)CNC(=O)c1cnc(Nc2ccncn2)cc1NC1CC1 [Example 21, 4-(cyclopropylamino)-N-((2R)-2-fluoro-3-hydroxy-3-methylbutyl)-6-(4-pyrimidinylamino)nicotinamide] | 13.3 nM
CC(C)(O)[C@H](F)CNC(=O)c1cnc(Nc2ncc(C#N)cn2)cc1N[C@H]1CCC[C@H]1F [Example 107] | 9.1 nM
CC(C)Nc1cc(Nc2ccc(=O)[nH]n2)ncc1C(=O)NC[C@@H](F)C(C)(C)O [Example 45] | 7.5 nM
CC(C)Nc1cc(Nc2ncncc2N)ncc1C(=O)NC[C@@H](F)C(C)(C)O [Example 132] | 13 nM
CC(C)Nc1cc(Nc2ccncn2)ncc1C(=O)NC[C@@H](F)C(C)(C)O [Example 20, N-((2R)-2-fluoro-3-hydroxy-3-methylbutyl)-4-(isopropylamino)-6-(4-pyrimidinylamino)nicotinamide] | 11.7 nM
Cc1cnc(Nc2cc(NC(C)C)c(C(=O)NC[C@@H](F)C(C)(C)O)cn2)nc1 [Example 113] | 17 nM
CC(C)(O)[C@H](F)CNC(=O)c1cnc(Nc2ncc(C#N)cc2F)cc1NC1COC1 [Example 164] | 8 nM
CCNc1cc(Nc2ncc(C#N)cn2)ncc1C(=O)NC[C@@H](F)C(C)(C)O [Example 58] | 10.4 nM
CC(C)(O)[C@H](F)CNC(=O)c1cnc(Nc2ncc(F)cc2F)cc1NC1CC1 [Example 89] | 14.5 nM

The remaining lines, values ahead:

IC50 | Compound
3.1 nM | CC(C)(O)[C@H](F)CNC(=O)c1cnc(Nc2ncc(C#N)cc2F)cc1NC1CCOCC1 [Example 49]
3 nM | CS(=O)(=O)[C@H]1CC[C@H](NC(=O)c2cnc(Nc3ncc(C#N)cc3Cl)cc2NC2CCOCC2)CC1 [Example 149]
5.3 nM | CC(C)(F)CNc1cc(Nc2ncc(C#N)cc2Cl)ncc1C(=O)NC1CCC(C(C)(C)O)CC1 (centres unmarked) [Example 103]
3.3 nM | CS(=O)(=O)[C@H]1CC[C@H](NC(=O)c2cnc(Nc3ncc(C#N)cc3Cl)cc2NC2CC2)CC1 [Example 151]
3.8 nM | C[C@@H](CF)Nc1cc(Nc2ncc(C#N)cc2Cl)ncc1C(=O)NC[C@@H](F)C(C)(C)O [Example 39, 6-((3-chloro-5-cyanopyridin-2-yl)amino)-N—((R)-2-fluoro-3-hydroxy-3-methylbutyl)-4-(((S)-1-fluoropropan-2-yl)amino)nicotinamide]
4.1 nM | CC(C)Nc1cc(Nc2ncc(C#N)cc2F)ncc1C(=O)N[C@H]1CC[C@H](C(C)(C)O)CC1 [Example 137]
1.5 nM | CC(=O)N[C@H](C)CCNC(=O)c1cnc(Nc2ncc(C#N)cc2Cl)cc1NC(C)C [Example 28, (R)—N-(3-acetamidobutyl)-6-((3-chloro-5-cyanopyridin-2-yl)amino)-4-(isopropylamino)nicotinamide]
3 nM | CC(C)(O)[C@H](F)CNC(=O)c1cnc(Nc2ncc(C#N)cc2Cl)cc1NC1CCOCC1F (some centres unmarked) [Example 79]
8.6 nM | CC(C)(O)[C@H](F)CNC(=O)c1cnc(Nc2ncc(C#N)cc2Cl)cc1NC1CCCCC1O (some centres unmarked) [Example 104]
2.9 nM | CC(C)(O)[C@H](F)CNC(=O)c1cnc(Nc2ncc(C#N)cc2Cl)cc1Nc1cccc(C(N)=O)c1 [Example 143]
5 nM | CC(C)(O)[C@H](F)CNC(=O)c1cnc(Nc2ncc(C#N)cn2)cc1NC1CCC(F)C1 (some centres unmarked) [Example 56]
4.3 nM | C[C@@H](CO)Nc1cc(Nc2ncc(C#N)cc2F)ncc1C(=O)NC[C@@H](F)C(C)(C)O [Example 91]
1.2 nM | CC(C)NC(=O)N[C@H](C)CCNC(=O)c1cnc(Nc2ncc(C#N)cc2F)cc1NC(C)C [Example 29, (R)-6-((5-cyano-3-fluoropyridin-2-yl)amino)-4-(isopropylamino)-N-(3-(3-isopropylureido)butyl)nicotinamide]
12.7 nM | CC(C)Nc1cc(Nc2ncc(C#N)cc2Cl)ncc1C(=O)N[C@H]1CC[C@H](O)CC1 [Example 92]
10.4 nM | CC(C)Nc1cc(Nc2ccc(C#N)cn2)ncc1C(=O)N[C@H]1CC[C@H](C(=O)N[C@H]2C[C@H]2F)CC1 [Example 7, 6-((5-cyano-2-pyridinyl)amino)-N-(trans-4-(((1S,2R)-2-fluorocyclopropyl)carbamoyl)cyclohexyl)-4-(isopropylamino)nicotinamide]
6.4 nM | CC(C)(O)[C@H](F)CNC(=O)c1cnc(Nc2ncc(C#N)cc2Cl)cc1NC1CCCC1O (some centres unmarked) [Example 76]
7.2 nM | CC(=O)N[C@H]1CC[C@H](NC(=O)c2cnc(Nc3ncc(C#N)cc3Cl)cc2NC2CC2)CC1 [Example 67]

IC50 | Compound
7.3 nM | CC(=O)N[C@H]1CC[C@H](NC(=O)c2cnc(Nc3ncc(C#N)cc3F)cc2NC2CC2)CC1 [Example 83]
6 nM | CC(C)Nc1cc(Nc2ccc(C#N)c(N3CCC(O)C3)n2)ncc1C(=O)NC[C@@H](F)C(C)(C)O (stereo in doubt) [Example 27, 6-((5-cyano-6-((3S)-3-hydroxy-1-pyrrolidinyl)-2-pyridinyl)amino)-N-((2R)-2-fluoro-3-hydroxy-3-methylbutyl)-4-(isopropylamino)nicotinamide]
5.3 nM | CC(C)Nc1cc(Nc2ncc(C#N)cn2)ncc1C(=O)NC[C@@H](F)C(C)(C)O [Example 22, 6-((5-cyano-2-pyrimidinyl)amino)-N-((2R)-2-fluoro-3-hydroxy-3-methylbutyl)-4-(isopropylamino)nicotinamide]
9.9 nM | CC(C)CCNc1cc(Nc2ncc(C#N)cc2F)ncc1C(=O)NC[C@@H](F)C(C)(C)O [Example 141]
13 nM | CC(C)Nc1cc(Nc2ncc(C#N)cc2F)ncc1C(=O)NC1CCC(O)(c2nccs2)CC1 (centres unmarked) [Example 167]
8.4 nM | CNC(=O)[C@H]1CC[C@H](NC(=O)c2cnc(Nc3ncc(C#N)cc3F)cc2NC2CCOCC2)CC1 [Example 61]
7.3 nM | CC(C)CCNc1cc(Nc2ncc(C#N)cc2Cl)ncc1C(=O)NC[C@@H](F)C(C)(C)O [Example 140]
15.5 nM | CS(=O)(=O)[C@H]1CC[C@H](NC(=O)c2cnc(Nc3ncc(C#N)cc3F)cc2Nc2cccc(C(N)=O)c2)CC1 [Example 161]
6.6 nM | CC(C)Nc1cc(Nc2ncc(C#N)cc2F)ncc1C(=O)NCCc1ccc(S(N)(=O)=O)cc1 [Example 121]
5.2 nM | CC(=O)N[C@H]1CC[C@H](NC(=O)c2cnc(Nc3ncc(C#N)cc3Cl)cc2NC(C)C)CC1 [Example 15, N-((1r,4r)-4-acetamidocyclohexyl)-6-((3-chloro-5-cyanopyridin-2-yl)amino)-4-(isopropylamino)nicotinamide]
3.1 nM | CC(=O)N[C@H](C)CCNC(=O)c1cnc(Nc2ncc(C#N)cc2F)cc1NC(C)C [Example 64]
8.2 nM | CC(C)Nc1cc(Nc2ncc(C#N)cc2F)ncc1C(=O)NC1CCC(O)(c2ccnn2C)CC1 (centres unmarked) [Example 166]
1.9 nM | CC(C)Nc1cc(Nc2ncc(C#N)cc2Cl)ncc1C(=O)NC[C@@H](F)C(C)(C)O [Example 12, 6-((3-chloro-5-cyano-2-pyridinyl)amino)-N-((2R)-2-fluoro-3-hydroxy-3-methylbutyl)-4-(isopropylamino)nicotinamide]
1.9 nM | CC(C)(O)[C@H](F)CNC(=O)c1cnc(Nc2ncc(C#N)cc2F)cc1NC1CC1 [Example 47]
3.6 nM | Cc1cc(C#N)cnc1Nc1cc(NC(C)C)c(C(=O)NC[C@@H](F)C(C)(C)O)cn1 [Example 85]
6.3 nM | CNC(=O)[C@H]1CC[C@H](NC(=O)c2cnc(Nc3ncc(C#N)cc3Cl)cc2NC(C)C)CC1 [Example 16, 6-((3-chloro-5-cyanopyridin-2-yl)amino)-4-(isopropylamino)-N-((1r,4r)-4-(methylcarbamoyl)cyclohexyl)nicotinamide]
